Tested on: human PDE IV
Experiment: PDE IV inhibition, method of Torphy et al. (1992), [3H]cAMP, enzyme purified from human monocytes (U937-cells)
Format: biochemical
Conditions: 1 μCi/ml [3H] cAMP, 40 mM Tris-HCl (pH 7.8), 3 mM MgCl2, incubation 30 min at 30° C.
Source text: Table 1 contains the pharmacological data obtained for the compounds of general formula (I). The data was obtained by the method of Torphy et al. (1992), J. Pharmacol. Exp. Ther. 263:1195.

Structure (SMILES)	IC50
CCc1nc2c([nH]1)c(=O)n(CC)c1nc(CC3CCCCC3)nn21 [No. 18]	0.12 µM
CCn1c(=O)c2[nH]c(C3CCCC3)nc2n2nc(Cn3cccc3)nc12 [No. 11]	0.069 µM
CCn1c(=O)c2[nH]c(C(C)(C)C)nc2n2nc(Cc3ccc(OC)cc3)nc12 [No. 3]	0.042 µM
CCn1c(=O)c2[nH]c(C3CCCC3)nc2n2nc(COc3ccccc3)nc12 [No. 15]	0.11 µM
CCn1c(=O)c2[nH]c(C3CCCC3)nc2n2nc(CCc3ccccc3)nc12 [No. 4]	0.046 µM
CCCc1nc2n(CCC)c(=O)c3[nH]c(C4CCCC4)nc3n2n1 [No. 6]	0.049 µM
CCn1c(=O)c2[nH]c(C(C)(C)C)nc2n2nc(Cc3ccccc3)nc12 [No. 7]	0.053 µM
CCCc1nc2n(CCC)c(=O)c3[nH]c(-c4ccccc4)nc3n2n1 [No. 8]	0.055 µM
CCCCc1nc2n(CCC)c(=O)c3[nH]c(C4CCCC4)nc3n2n1 [No. 14]	0.081 µM
CCCn1c(=O)c2[nH]c(C3CCCC3)nc2n2nc(CC)nc12 [No. 2]	0.039 µM
CCCc1nc2c([nH]1)c(=O)n(CCC)c1nc(C3CCCC3)nn21 [No. 19]	0.12 µM
CCn1c(=O)c2[nH]c(C3CCCC3)nc2n2nc(Cc3ccccc3)nc12 [No. 9]	0.057 µM
CCCn1c(=O)c2[nH]c(N3CCOCC3)nc2n2nc(Cc3ccccc3)nc12 [No. 16]	0.11 µM
CCn1c(=O)c2[nH]c(C3CCCC3)nc2n2nc(CC3CCCCC3)nc12 [No. 17]	0.11 µM
CCCn1c(=O)c2[nH]c(C3CCCC3)nc2n2nc(C(C)(C)C)nc12 [No. 13]	0.079 µM
CCCn1c(=O)c2[nH]c(C3CCCC3)nc2n2nc(C(C)C)nc12 [No. 1]	0.018 µM
CCCc1nc2c([nH]1)c(=O)n(CCC)c1nc(Cc3ccccc3)nn21 [No. 10]	0.069 µM
CCCn1c(=O)c2[nH]c(C3CCCC3)nc2n2nc(Cc3ccccc3)nc12 [No. 12]	0.074 µM

— patent publication US6417190B1, “Tricyclic nitrogen heterocycles as PDE IV inhibitors” (Boehringer Ingelheim Pharma KG, priority 1998, dated 2002)
